Source: publication PMC6396881 (European journal of medicinal chemistry, 2018)

Experiments:
DYRK1A = DYRK1A (Homo sapiens, UniProt Q13627); assay: KINOMEscan qPCR-based binding assay; conditions: for fold improvement in DYRK1A binding (Kd) as compared to hit 3–1: ratio of Kd
human β-cell [1] = conditions: cited from earlier work
human β-cell [2] = assay: Human β-cell proliferation assay; type: cell-based; conditions: 5 μM, 96 hours, KI67 labeling of insulin-labeled cells, compared to vehicle-treated cells

## COc1ccc2c(c1)[nH]c1c(C)nccc12 [Harmine, reference compound]
DYRK1A
  % DMSO Ctrl, DYRK1A: < 1%
Human β-cell [1]
  fold induction in human pancreatic β-cell proliferation: 10–15 fold

## CC(NC1=NN=C(c2ccc3[nH]c(=O)[nH]c3c2)CS1)c1ccccc1 (centres unmarked) [3–16, N-(1-phenylethyl)-5-(benzo[d]imidazol-2(3H)-one)-6H-1,3,4-thiadiazin-2-amine]
DYRK1A
  fold improvement in DYRK1A binding (Kd) as compared to hit 3–1: 4 fold

## O=c1[nH]c2ccc(C3=NN=C(NCc4ccc(F)cc4)SC3)cc2[nH]1 [Compound 3–5, N-(4-fluorobenzyl)-5-(benzo[d]imidazol-2(3H)-one)-6H-1,3,4-thiadiazin-2-amine]
Human β-cell [2]
  human β-cell proliferation: induced human β-cell proliferation

## O=c1[nH]c2ccc(C3=NN=C(NCc4cccnc4)SC3)cc2[nH]1 [3–13, N-(pyridine-3yl)methyl-5-(benzo[d]imidazol-2(3H)-one)-6H-1,3,4-thiadiazin-2-amine]
DYRK1A
  fold improvement in DYRK1A binding (Kd) as compared to hit 3–1: 5 fold
